This note sets out measurements from patent publication US9551722B2, “Amyloid binding agents” (The Regents of the University of California, priority 2009, dated 2017).

Where two headings read alike, the source gives them in different places.

Experiment [1] deals with amyloid plaques in human tissue from AD cases. Description: Fluorescence imaging of amyloid plaques in tissue sections. Conditions: frozen AD tissue sections, probe solution 30 min, washed with water. As to the method: FIGS. 11A-F depict fluorescence images of amyloid plaques in human tissue from AD cases. After the frozen tissue was sectioned and mounted to a glass slide, the tissue was exposed to a solution containing a fluorescent probe for 30 min. The sample was washed with water to eliminate non-specific staining of the tissue, and imaged using an inverted epi-fluorescence microscope. The images reveal the location of plaques that were stained with A) compound 27, B) compound 28, C) compound 29, D) compound 30, E) compound 31, or F) compound 33.

Another experiment concerns the target T1, aggregated Aβ42 peptides (Homo sapiens, UniProt P05067).
T1 construct: preaggregated Aβ(1-42) peptides
In words: Apparent binding constant (Kd) of probes 27-31, 33 by fluorescence intensity vs concentration. The following applies: probe 1.25, 2.5, 5.0, 10 μM in nano-pure water, 5 μM pre-aggregated Aβ42. The protocol:
We also measured the apparent binding constants (Kd) of the probes to aggregated Aβ42 peptides. The fluorescent intensity of each probe was measured in concentrations of 1.25, 2.5, 5.0 and 10 μM in nano-pure water, mixed with 5 μM of the pre-aggregated Aβ42 peptides. Zhao, X.; Yang, J., ACS Chem. Neurosc. 1, (10), 655-660. […] On the other hand, a decrease of the Kd value was observed upon chemically altering the electron donor of the ANCA scaffold. […] FIGS. 10A-F show plots of the fluorescence intensity (at λ=525 nm) of compounds 27-31 and […], respectively, as a function of the concentration in the presence of aggregated Aβ42 peptides (5 μM) in solution.

Experiment [2] deals with T2, aggregated Aβ(1-42) peptides (Homo sapiens, UniProt P05067).
T2 construct: preaggregated Aβ(1-42) peptides
T2 sequence (P05067 672-713 limits assumed): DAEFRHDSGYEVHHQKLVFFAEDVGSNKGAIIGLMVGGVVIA
In words: Fluorescence of probes 27-31, 33 before and after mixing with aggregated Aβ42. Conditions: 4 μM probe; for Em. max (nm) after / Exc. max (nm) after / Fold increase (emission intensity after binding): 5 μM aggregated Aβ(1-42); for Em. max (nm) before / Exc. max (nm) before: nano-pure water (5% DMSO), without Aβ. Type of experiment: binding. The protocol: Aggregated Aβ peptide was prepared by dissolving Aβ(1-42) in PBS pH 7.4 to a final concentration of 100 μM. This solution was magnetically stirred at 1200 rpm for 3 days at room temperature. The 100 μM Aβ(1-42) stock solution in PBS was aliquoted and frozen at −10° C. for up to 4 weeks without noticeable change in its property. 15 μL of the pre-aggregated Aβ(1-42) was added to 285 μL of the probe (5% DMSO in nano-pure water) to attain a final concentration of 5 μM Aβ(1-42) and 4 μM of the probe. The solution was transferred to a […] cuvette and the fluorescent measured. FIGS. 9A-F show fluorescence excitation spectra of Cmpds 27-31 and 33, respectively.
LeVine III, H., Protein Sci. 1993, 2, (3), 404-410. Along these lines, we compared the fluorescent properties of 27-31 or 33 in aqueous solution with or without the presence of aggregated Aβ42 peptides. Specifically, we measured the fluorescent properties of each dye at 4 μM concentration in nano pure water, before and after mixing with aggregated Aβ42 peptide (final concentration peptide=5 μM). As it is shown in table 5, in all cases we observed a significant increase (3 to 9-fold) in the intensity of the emission spectra of the probes upon association with the aggregated amyloid peptides. This intensity increase was also accompanied with a blue shift in the emission spectra of around 5-50 nm. […] FIG. 9C provides a representative example of the fluorescent properties of compound 29.

T1 sequence (P05067 672-713 limits assumed): as above

For `COCCOCCOCCOC(=O)/C(C#N)=C/c1ccc2cc(N3CCOCC3)ccc2c1` [Compound 29, (E)-2-(2-(2-methoxyethoxyl)ethoxy)ethyl 2-cyano-3-(2-morpholinonapthalen-6-yl)acrylate], the “Staining of amyloid plaques (fluorescence image)” value (shortened to “Staining of amyloid plaques”) in experiment [1] was “stained”. Moreover, at aggregated Aβ42 peptides (read-out: Kd), the Kd amounted to 13.8 µM. Moreover, in experiment [2], the “Em. max (nm) after” value was 525 nm, the “Exc. max (nm) after” value stood at 380 nm, the “Fold increase (emission intensity after binding)” value (“Fold increase” for short) is recorded as 5.1 fold and the “Em. max (nm) before” value is reported as 530 nm. Also, in experiment [2], the “Exc. max (nm) before” value was found to be 400 nm.

With `COCCOCCOCCOC(=O)/C(C#N)=C/c1ccc2cc(N3CCN(C)CC3)ccc2c1` [Compound 28, (E)-2-(2-(2-methoxyethoxyl)ethoxy)ethyl 2-cyano-3-(2-(4-methylpiperazin-1-yl)napthalen-6-yl) acrylate], the “Staining of amyloid plaques” value in experiment [1] is recorded as “stained”. Also, the Kd at aggregated Aβ42 peptides (read-out: Kd) stood at 4.6 µM. Moreover, in experiment [2], the “Em. max (nm) after” value stood at 530 nm, the “Exc. max (nm) after” value came out at 385 nm, the “Fold increase” value was 4.9 fold and the “Em. max (nm) before” value came out at 580 nm. The “Exc. max (nm) before” value in experiment [2] amounted to 400 nm.

For `COCCOCCOCCOC(=O)/C(C#N)=C/c1ccc2cc(N3CCCCC3)ccc2c1` [Compound 27, (E)-2-(2-(2-methoxyethoxyl)ethoxy)ethyl 2-cyano-3-(2-(piperidin-1-yl)napthalen-6-yl)acrylate], the figures for the Kd result on aggregated Aβ42 peptides and at aggregated Aβ42 peptides (read-out: Kd) were “highest affinity” and 1.4 µM, respectively.

Take `COCCOCCOCCOC(=O)/C(C#N)=C/c1ccc2cc(NCCN3CCOCC3)ccc2c1` [Compound 30, (E)-2-(2-(2-methoxyethoxyl)ethoxy)ethyl 3-(2-(2-morpholinoethylamino)naphthalen-6-yl)-2-cyano acrylate]: the “Staining of amyloid plaques” value in experiment [1] is listed as “stained”. The Kd on aggregated Aβ42 peptides (read-out: Kd) worked out at 6.7 µM. For the same molecule, in experiment [2], the “Em. max (nm) after” value was 540 nm, the “Exc. max (nm) after” value stood at 430 nm, the “Fold increase” value came to 2.9 fold and the “Em. max (nm) before” value is on record as 570 nm. The “Exc. max (nm) before” value in experiment [2] turned out to be 430 nm.

As for `N#C/C(=C\c1ccc2cc(N3CCCCC3)ccc2c1)C(=O)OCC(O)CO` (stereo not drawn) [Compound 33, (E)-2,3-dihydroxypropyl 2-cyano-3-(2-(piperidin-1-yl)naphthalene-6-yl)acrylate], in experiment [1], the “Staining of amyloid plaques” value is “stained”. Moreover, on aggregated Aβ42 peptides, the Kd entry was “highest affinity”. Besides, at aggregated Aβ42 peptides (read-out: Kd), the Kd was 1.6 µM. Besides, in experiment [2], the “Em. max (nm) after” value is 535 nm, the “Exc. max (nm) after” value was determined as 410 nm, the “Fold increase” value is 7.2 fold and the “Em. max (nm) before” value was found to be 540 nm. Also, the “Exc. max (nm) before” value in experiment [2] was determined as 410 nm.

Turning to `COCCOCCOCCOCCOC(=O)/C(C#N)=C/c1ccc2cc(N3CCCCC3)ccc2c1` [Compound 31, (E)-2-(2-(2-(2-methoxyethoxyl)ethoxy)ethoxy)ethyl 2-cyano-3-(2-(piperidin-1-yl)napthalen-6-yl) acrylate], the values for the Kd entry on aggregated Aβ42 peptides and at aggregated Aβ42 peptides (read-out: Kd) were “highest affinity” and 1.6 µM, respectively.
